In patent US8586591B2, “Aminopyrazine derivative and medicine” (Nippon Shinyaku Co., Ltd., priority 2009, dated 2013):
Where a name gives a salt, the structure may show the parent alone.

How the values were obtained:
JAK3 tyrosine kinase = biological target: T1, JAK3 tyrosine kinase (Homo sapiens, UniProt P52333); assay: Test 1: inhibitory activity to JAK3 tyrosine kinase (ELISA); format: biochemical; details: 25 μM ATP in substrate solution, 30° C. for 1 hour, n=2
T1 construct: purchased Carnabioscience Co
T1 sequence (P52333 1-1124): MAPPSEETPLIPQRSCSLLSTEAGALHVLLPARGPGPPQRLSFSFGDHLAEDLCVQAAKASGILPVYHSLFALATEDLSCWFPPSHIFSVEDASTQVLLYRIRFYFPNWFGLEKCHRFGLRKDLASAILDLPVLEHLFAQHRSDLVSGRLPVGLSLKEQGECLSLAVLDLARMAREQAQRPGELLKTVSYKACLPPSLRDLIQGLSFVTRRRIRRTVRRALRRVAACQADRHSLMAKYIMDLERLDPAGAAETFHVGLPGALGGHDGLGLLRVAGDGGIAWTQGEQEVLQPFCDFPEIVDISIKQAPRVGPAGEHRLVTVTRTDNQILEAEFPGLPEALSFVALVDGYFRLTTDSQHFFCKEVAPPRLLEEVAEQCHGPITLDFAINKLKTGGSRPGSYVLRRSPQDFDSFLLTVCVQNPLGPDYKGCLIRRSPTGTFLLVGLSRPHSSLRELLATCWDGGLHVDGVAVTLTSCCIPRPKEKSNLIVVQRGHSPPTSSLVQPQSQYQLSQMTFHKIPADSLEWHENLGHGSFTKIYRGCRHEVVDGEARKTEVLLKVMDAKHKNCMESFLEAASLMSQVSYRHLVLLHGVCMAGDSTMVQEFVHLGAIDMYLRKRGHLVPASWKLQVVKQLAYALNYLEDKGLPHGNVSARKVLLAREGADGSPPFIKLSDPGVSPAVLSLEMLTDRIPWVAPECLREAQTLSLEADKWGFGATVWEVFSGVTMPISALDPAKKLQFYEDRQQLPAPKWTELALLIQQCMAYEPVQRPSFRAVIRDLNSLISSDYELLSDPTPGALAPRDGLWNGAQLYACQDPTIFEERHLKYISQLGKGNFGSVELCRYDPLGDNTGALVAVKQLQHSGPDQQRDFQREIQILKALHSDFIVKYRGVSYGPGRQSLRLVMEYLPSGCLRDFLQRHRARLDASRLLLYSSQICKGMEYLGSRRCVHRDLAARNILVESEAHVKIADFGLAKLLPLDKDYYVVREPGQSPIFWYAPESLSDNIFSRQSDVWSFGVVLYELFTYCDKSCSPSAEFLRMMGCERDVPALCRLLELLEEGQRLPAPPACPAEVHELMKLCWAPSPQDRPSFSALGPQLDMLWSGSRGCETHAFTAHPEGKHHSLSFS
Summary of the method: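 ELISA of JAK3 kinase activity with absorbance read at 450 nm. Compounds were tested from DMSO dilution series at 100-fold the measurement concentrations (1000–0.01 μM), diluted up to 20 times in assay buffer, against a DMSO negative control. IC50 was estimated by non-linear regression of absorbance.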

JAK2 tyrosine kinase = biological target: T2, JAK2 tyrosine kinase (Homo sapiens, UniProt O60674); assay: Test 1: inhibitory activity to JAK2 tyrosine kinase (ELISA); format: biochemical; details: 25 μM ATP in substrate solution, 30° C. for 1 hour, n=2
T2 construct: purchased Carnabioscience Co
Procedure: Test 1: Test for inhibitory activity to JAK2 and JAK3 tyrosine kinase 1. Preparation of Test Material
The test material was dissolved in dimethylsulfoxide (DMSO) to be 10 mM, and further diluted with DMSO to be 100-fold concentrations for measurement (1000, 300, 100, 30, 10, 3, 1, 0.3, 0.1, 0.03, 0.01 μM). In addition, solutions diluted with an assay buffer up to 20 times were used as solutions of the test material. As a negative control, a solution of DMSO diluted 20 times with an assay buffer was used. As the assay buffer, 15 mM Tris-Cl (pH 7.5), 0.01 v/v % Tween-20, and 1 mM dithiothreitol were used.
2. Measurement of the Activities of JAK2 and JAK3 Tyrosine Kinases
The activity was determined by ELISA. The solution of the test material (10 μl each; n=2) was placed in a streptavidine-coated 96 well plate (DELFIA Strip Plate 8×12 wells; Perkin Elmer), to which 20 μl each of substrate solution (625 nM biotin-labeled peptide substrate, 25 μM ATP, 25 mM MgCl2, 15 mM Tris-Cl (pH 7.5), 0.01 v/v % Tween-20, and 1 mM dithiothreitol), was added and stirred. Finally, 20 μl each of JAK2 tyrosine kinase (Carnabioscience Co.) (diluted to 0.75 nM with assay buffer) or JAK3 tyrosine kinase (Carnabioscience Co.) (diluted to 0.75 nM with assay buffer) was added, stirred and allowed to stand at 30° C. for 1 hour. The plate was washed 4 times with a washing buffer (50 mM Tris-Cl, pH 7.5, 150 mM NaCl, 0.02 v/v % Tween-20), and then a blocking buffer (0.1% Bovine Serum Albumin, 50 mM Tris-Cl, pH 7.5, 150 mM NaCl, 0.02 v/v % Tween-20)(150 μl each) was added for blocking at 30° C. for 30 minutes. Blocking buffer was removed, and there was added 100 μl each of horse radish peroxidase-labeled anti-phosphorylated tyrosin kinase antibody (BD Bioscience Co.) (diluted 10,000 times with blocking buffer). The plate was incubated at 30° C. for 30 minutes and then washed 4 times with a washing buffer, and 100 μl each of 3,3′,5,5′-tetramethylbenzidine (Sigma-Aldrich Co.) was added to develop color for 10 minutes. 0.1 M sulfuric acid (100 μl each) was added to stop the reaction. The absorbance was measured by means of a micro-plate reader (BIO-RAD; Model 3550) at 450 nm.
3. Analysis of the Results of the Measurement
The measured absorbance was subjected to a non-linear regression analysis by means of a SAS system (SAS Institute Inc.), and the concentration (IC50) of the test material which inhibited 50% of the activity of each tyrosine kinase was estimated.

T2 sequence (O60674 whole entry): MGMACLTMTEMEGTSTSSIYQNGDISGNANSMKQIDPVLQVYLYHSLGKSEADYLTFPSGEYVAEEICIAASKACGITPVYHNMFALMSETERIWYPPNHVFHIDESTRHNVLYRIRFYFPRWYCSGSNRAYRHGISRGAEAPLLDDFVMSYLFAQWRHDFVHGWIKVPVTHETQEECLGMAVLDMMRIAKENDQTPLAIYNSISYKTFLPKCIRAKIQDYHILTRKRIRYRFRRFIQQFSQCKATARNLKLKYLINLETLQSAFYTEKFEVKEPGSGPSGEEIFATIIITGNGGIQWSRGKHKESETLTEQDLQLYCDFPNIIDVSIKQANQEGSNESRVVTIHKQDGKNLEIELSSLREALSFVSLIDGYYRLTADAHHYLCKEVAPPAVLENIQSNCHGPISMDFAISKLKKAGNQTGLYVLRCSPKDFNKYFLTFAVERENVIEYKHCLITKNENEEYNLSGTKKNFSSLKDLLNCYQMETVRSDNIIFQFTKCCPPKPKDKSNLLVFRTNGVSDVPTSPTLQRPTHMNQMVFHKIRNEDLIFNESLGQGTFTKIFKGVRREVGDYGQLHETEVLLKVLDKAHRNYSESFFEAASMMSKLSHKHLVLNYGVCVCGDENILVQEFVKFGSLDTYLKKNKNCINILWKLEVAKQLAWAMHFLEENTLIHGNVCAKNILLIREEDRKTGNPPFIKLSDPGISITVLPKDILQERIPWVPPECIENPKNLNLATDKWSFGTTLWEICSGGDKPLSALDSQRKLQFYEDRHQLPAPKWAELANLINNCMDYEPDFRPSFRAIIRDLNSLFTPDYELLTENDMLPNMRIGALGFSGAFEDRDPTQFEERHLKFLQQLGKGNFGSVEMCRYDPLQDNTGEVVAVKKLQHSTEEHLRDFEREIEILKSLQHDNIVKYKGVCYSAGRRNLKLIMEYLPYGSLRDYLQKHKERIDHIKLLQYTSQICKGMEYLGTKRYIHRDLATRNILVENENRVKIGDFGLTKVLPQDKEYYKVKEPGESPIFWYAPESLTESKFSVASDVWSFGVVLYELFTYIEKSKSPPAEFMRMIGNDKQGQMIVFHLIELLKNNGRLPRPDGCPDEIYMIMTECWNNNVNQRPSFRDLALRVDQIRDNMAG

Compound | IC50 (JAK3 tyrosine kinase) [nM] | IC50 (JAK2 tyrosine kinase) [nM]
CC(C)C[C@H](CO)Nc1cc(Nc2cnccn2)nc(N[C@@H](C)c2ccc(F)cc2)n1 [Example 88, (R)-2-{2-[(S)-1-(4-Fluorophenyl)ethylamino]-6-(pyrazin-2-ylamino)pyrimidin-4-ylamino}-4-methylpentan-1-ol] | 200 | 13
C[C@H](Nc1nc(NCCNS(C)(=O)=O)cc(Nc2cnccn2)n1)c1ccc(F)cc1 [Example 77, (S)—N-(2-{2-[1-(4-Fluorophenyl)ethylamino]-6-(pyrazin-2-ylamino)pyrimidin-4-ylamino}ethyl)methanesulfonamide hydrochloride] | 37 | 0.73
C[C@H](Nc1nc(Nc2cnccn2)cc(-c2cccc(S(C)(=O)=O)c2)n1)c1ccc(F)cc1 [Example 35, (S)—N^2-[1-(4-Fluorophenyl)ethyl]-6-[3-(methylsulfonyl)phenyl]-N^4-(pyrazin-2-yl) yrimidine-2,4-diamine hydrochloride] | 440 | 2.5
C[C@H](Nc1cc(N2CC(N3CCC(O)CC3)C2)cc(Nc2cnccn2)n1)c1ccc(F)cc1 [Example 234, (S)-1-(1-{2-[1-(4-Fluorophenyl)ethylamino]-6-(pyrazin-2-ylamino)pyridin-4-yl}azetidin-3-yl)piperidin-4-ol] | 170 | 5.4
C[C@H](Nc1cc(C2CCN(S(C)(=O)=O)CC2)cc(Nc2cnccn2)n1)c1ccc(F)cc1 [Example 215, (S)—N^2-[1-(4-Fluorophenyl)ethyl]-4-[1-(methanesulfonyl)piperidin-4-yl]-N^6-(pyrazin-2-yl)pyridine-2,6-diamine] | 210 | 2.3
COC1(C(C)C)CN(c2cc(Nc3cnccn3)nc(N[C@@H](C)c3ccc(F)cc3)c2)C1 [Example 212, (S)—N^2-[1-(4-Fluorophenyl)ethyl]-4-(3-isopropyl-3-methoxyazetidin-1-yl)-N^6-(pyrazin-2-yl)pyridine-2,6-diamine hydrochloride] | 160 | 15
C[C@H](Nc1nc(Nc2cnccn2)ccc1C(=O)NCC1CC1)c1ccc(F)cc1 [Example 189, (S)—N-(Cyclopropylmethyl)-2-[1-(4-fluorophenyl)ethylamino]-6-(pyrazin-2-ylamino)nicotinamide] | 1500 | 12
C[C@H](Nc1cc(-c2ccoc2)cc(Nc2cnccn2)n1)c1ccc(F)cc1 [Example 123, (S)—N^2-[1-(4-Fluorophenyl)ethyl]-4-(furan-3-yl)-N^6-(pyrazin-2-yl)pyridine-2,6-diamine] | 330 | 5.4
COCc1cc(Nc2cnccn2)nc(N[C@@H](C)c2ccc(F)cc2)c1 [Example 175, (S)—N^2-[1-(4-Fluorophenyl)ethyl]-4-(methoxymethyl)-N^6-(pyrazin-2-yl)pyridine-2,6-diamine] | 400 | 4.9
C[C@H](Nc1nc(Nc2cnccn2)cc(-c2nn[nH]n2)n1)c1ccc(F)cc1 [Example 75, (S)—N^2-[1-(4-Fluorophenyl)ethyl]-N^4-(pyrazin-2-yl)-6-(2H-tetrazol-5-yl)pyrimidine-2,4-diamine] | 630 | 12
C[C@H](Nc1nc(NCCN2CCCC2)cc(Nc2cnccn2)n1)c1ccc(F)cc1 [Example 96, (S)—N^2-[1-(4-Fluorophenyl)ethyl]-N^4-(pyrazin-2-yl)-N^6-[2-(pyrrolidin-1-yl)ethyl]pyrimidine-2,4,6-triamine] | 33 | 1.4
C[C@H](Nc1nc(NCc2ccccn2)cc(Nc2cnccn2)n1)c1ccc(F)cc1 [Example 106, (S)—N^2-[1-(4-Fluorophenyl)ethyl]-N^4-(pyrazin-2-yl)-N^6-(pyridin-2-ylmethyl)pyrimidine-2,4,6-triamine] | 110 | 1.9
C[C@H](Nc1nc(Nc2cnccn2)cc(-n2cc(C(=O)O)cn2)n1)c1ccc(F)cc1 [Example 90, (S)-1-{2-[1-(4-Fluorophenyl)ethylamino]-6-(pyrazin-2-ylamino)pyrimidin-4-yl}-1H-pyrazole-4-carboxylic acid] | 380 | 6.1
C[C@H](Nc1cc(C(=O)NC2CCC2)cc(Nc2cnccn2)n1)c1ccc(F)cc1 [Example 168, (S)—N-Cyclobutyl-2-[1-(4-fluorophenyl)ethylamino]-6-(pyrazin-2-ylamino)isonicotinamide] | 1300 | 17
CC(C)n1cc(-c2cc(Nc3cnccn3)nc(N[C@@H](C)c3ccc(F)cc3)c2)cn1 [Example 37, (S)—N^2-[1-(4-Fluorophenyl)ethyl]-4-(1-isopropyl-1H-pyrazol-4-yl)-N^6-(pyrazin-2-yl)pyridine-2,6-diamine hydrochloride] | 130 | 3.2
Cc1cc(Nc2cnccn2)nc(N[C@@H](C)c2ccc(F)cc2)c1 [Example 121, (S)—N^2-[1-(4-Fluorophenyl)ethyl]-4-methyl-N^6-(pyrazin-2-yl)pyridine-2,6-diamine hydrochloride] | 170 | 2.7
C[C@H](Nc1nc(Nc2cnccn2)cc(N2CCC(O)CC2)n1)c1ccc(F)cc1 [Example 71, (S)-1-{2-[1-(4-Fluorophenyl)ethylamino]-6-(pyrazin-2-ylamino)pyrimidin-4-yl}piperidin-4-ol hydrochloride] | 26 | 0.72
C[C@H](Nc1nc(Nc2cnccn2)cc(N2CC(C(=O)NCC3CC3)C2)n1)c1ccc(F)cc1 [Example 198, (S)—N-(Cyclopropylmethyl)-1-{2-[1-(4-fluorophenyl)ethylamino]-6-(pyrazin-2-ylamino)pyrimidin-4-yl}azetidine-3-carboxamide] | 60 | 1.6
C[C@H](Nc1nc(Nc2cnccn2)cc(-c2cccnc2)n1)c1ccc(F)cc1 [Example 32, (S)—N^2-[1-(4-Fluorophenyl)ethyl]-N^4-(pyrazin-2-yl)-6-(pyridin-3-yl)pyrimidine-2,4-diamine ½ maleate] | 68 | 0.5
C[C@H](Nc1nc(Nc2cnccn2)cc(OCCN(C)C)n1)c1ccc(F)cc1 [Example 89, (S)-6-[2-(Dimethylamino)ethoxy]-N^2-[1-(4-fluorophenyl)ethyl]-N^4-(pyrazin-2-yl)pyrimidine-2,4-diamine dihydrochloride] | 150 | 3.8
